Assay results from US20200016086A1, “Nanoparticulate Materials and Methods for Targeting Iron Acquisition and Metabolism for Treating Bacterial Infections” (KENT STATE UNIVERSITY, priority 2017, published 2020).

Key:
[1] = system: Staphylococcus aureus; experiment: Bacterial cytotoxicity / growth inhibition of S. aureus in TSB medium (OD600); format: cell-based; conditions: concentration range of 10 μM to 400 μM
[2] = format: physicochemical; conditions: buffer
Procedure: The kinetics of Fe^2+ removal was followed by measuring the decrease of Fe^2+ ion concentration in aqueous solution where the dialysis bag containing the PVP-coated CaPB NPs was immersed. The simultaneous increase of Ca^2+ ion concentration in the same solution was also determined quantitatively by AAS to verify the kinetics (FIG. 5b).

Compound	effect on growth of S. aureus [1]	half-life T1/2 of Fe^2+ removal [2] [min]
[Ca+2].[Cl-].[Cl-] [CaCl2]	no effect on growth	–
KCa[Fe^III(CN)6].n H2O [CaPB^III NPs]	–	55
